Test results reported in US11053260B2, “Tri-cycle compound and applications thereof” (FUJIAN COSUNTER PHARMACEUTICAL CO., LTD., priority 2017, dated 2021).
Read-outs that look alike come from different tables or passages of the source.

Test system: HBV
Assay: HBV in vitro test in quantitative qPCR assay (HBV DNA content in HepG2.2.15 cells)
Assay type: cell-based
Conditions: HBV DNA by qPCR, day 8, read-out: 50% inhibitory concentration (EC50) value of HBV
Protocol: HBV In Vitro Test in Quantitative qPCR Assay
The HBV DNA content in HepG2.2.15 cells was determined by real-time quantitative qPCR assay (real time-qPCR), and the inhibitory effect of the compound on HBV was evaluated by the EC50 value of the compound.
2.1 Cell line: HepG2.2.15 cells
3.1 HepG2.2.15 cells (4×10^4 cells/well) were seeded into a 96-well plate and incubated overnight at 37° C. under 5% CO2.
3.2 On the 2nd day, the compound was diluted into 8 concentrations with 3-time gradient. The compounds with different concentrations were added into the culture wells in duplicate wells. The final concentration of DMSO in the culture medium was 1%. 1 μM GLS4 was used as a 100% inhibition control, and 1% DMSO was used as a 0% inhibition control.
3.3 On the 5th day, the culture medium was replaced with a fresh medium containing the compound.
3.4 On the 8th day, the culture medium in the culture well was collected, and the DNA was extracted with a high-throughput DNA purification kit (Qiagen-51162), of which specific procedure was referred to the product specification.
3.6 15 μL of the reaction mixture was added into each well of a 96-well PCR plate, followed by addition of 10 μL of sample DNA or HBV DNA standards into each well.
3.7 PCR reaction conditions: heating at 95° C. for 10 minutes; then denaturation at 95° C. for 15 seconds, extension at 60° C. for 1 minute, a total of 40 cycles.
3.8.1 Calculation of the percentage of inhibition: % Inh.=[1−(DNA copy number in sample−DNA copy number in 1 μM GLS4)/(DNA copy number in DMSO control−DNA copy number in 1 μM GLS4)]×100
3.8.2 Calculation of EC50: The 50% inhibitory concentration (EC50) value of the compound on HBV was calculated by GraphPad Prism software.

[1] = Hepatitis B virus, HepG2.2.15, 192 h

| Compound | EC50 [1] [µM] | EC50 [µM] |
| --- | --- | --- |
| O=C(NCc1cccc(F)c1)c1ccc2c(c1)NC(=O)c1cccn1S2(=O)=O [WX239] | ≤ 0.1 | – |
| CC(C)c1ncc(CNC(=O)c2ccc3c(c2)NC(=O)c2cccn2S3(=O)=O)s1 [WX254] | 0.1 to 0.5 | – |
| CC(C)c1ncc(CNC(=O)c2ccc3c(c2)NC(=O)c2cc(Cl)cn2S3(=O)=O)s1 [WX255] | ≤ 0.1 | – |
| O=C(NCc1cnc(Cl)s1)c1ccc2c(c1)NC(=O)c1cccn1S2(=O)=O [WX257] | ≤ 0.1 | – |
| Cc1cccc2ncc(CNC(=O)c3ccc4c(c3)NC(=O)c3cccn3S4(=O)=O)n12 [WX258] | 0.1 to 0.5 | – |
| Cc1ccsc1CNC(=O)c1ccc2c(c1)NC(=O)c1cccn1S2(=O)=O [WX259] | 0.1 to 0.5 | – |
| Cc1nc(C)c(CNC(=O)c2ccc3c(c2)NC(=O)c2cccn2S3(=O)=O)s1 [WX260] | ≤ 0.1 | – |
| Cc1ccc2ncc(CNC(=O)c3ccc4c(c3)NC(=O)c3cccn3S4(=O)=O)n2c1 [WX261] | 0.1 to 0.5 | – |
| Cc1ccc(CNC(=O)c2ccc3c(c2)NC(=O)c2cccn2S3(=O)=O)s1 [WX262] | 0.1 to 0.5 | – |
| Cn1nccc1CNC(=O)c1ccc2c(c1)NC(=O)c1cccn1S2(=O)=O [WX263] | 0.5 to 1 | – |
| O=C(NCc1cnccc1C(F)(F)F)c1ccc2c(c1)NC(=O)c1cccn1S2(=O)=O [WX265] | 1 to 10 | – |
| CN(Cc1nc2ccccc2s1)C(=O)c1ccc2c(c1)NC(=O)c1cccn1S2(=O)=O [WX266] | 0.1 to 0.5 | – |
| O=C(NCc1cnc2ccccn12)c1ccc2c(c1)NC(=O)c1cccn1S2(=O)=O [WX267] | 0.1 to 0.5 | – |
| O=C(NCCC1CCCO1)c1ccc2c(c1)NC(=O)c1cc(F)cn1S2(=O)=O (stereo not drawn) [WX270] | 0.1 to 0.5 | – |
| Cc1nnc(CNC(=O)c2ccc3c(c2)NC(=O)c2cccn2S3(=O)=O)s1 [WX271] | 0.5 to 1 | – |
| Cn1cc(CNC(=O)c2ccc3c(c2)NC(=O)c2cccn2S3(=O)=O)cn1 [WX272] | 0.1 to 0.5 | – |
| CN1CC(CNC(=O)c2ccc3c(c2)NC(=O)c2cccn2S3(=O)=O)OC1=O (stereo not drawn) [WX275] | 0.5 to 1 | – |
| O=C(NCCc1cccnc1)c1ccc2c(c1)NC(=O)c1cccn1S2(=O)=O [WX278] | ≤ 0.1 | – |
| CC(C)(C)C(=O)N1CCC(CNC(=O)c2ccc3c(c2)NC(=O)c2cccn2S3(=O)=O)CC1 [WX279] | 0.1 to 0.5 | – |
| O=C(NCC1CCOC1)c1ccc2c(c1)NC(=O)c1cccn1S2(=O)=O (stereo not drawn) [WX280] | 0.1 to 0.5 | – |

| Compound | EC50 [1] [µM] | EC50 [µM] |
| --- | --- | --- |
| CC(C)OC(=O)N1CCC(CNC(=O)c2ccc3c(c2)NC(=O)c2cccn2S3(=O)=O)CC1 [WX285] | 0.1 to 0.5 | – |
| O=C(NCC1CCN(C(=O)Oc2ccccc2)CC1)c1ccc2c(c1)NC(=O)c1cccn1S2(=O)=O [WX286] | 0.5 to 1 | – |
| CC(C)CC(=O)N1CCC(CNC(=O)c2ccc3c(c2)NC(=O)c2cccn2S3(=O)=O)CC1 [WX287] | 0.5 to 1 | – |
| O=C(NCC1CCC(F)(F)CC1)c1ccc2c(c1)NC(=O)c1cccn1S2(=O)=O [WX288] | 0.1 to 0.5 | – |
| O=C(NCCOC1CCCC1)c1ccc2c(c1)NC(=O)c1cccn1S2(=O)=O [WX292] | 0.5 to 1 | – |
| O=C(NCCc1ccc(F)c(F)c1)c1ccc2c(c1)NC(=O)c1cccn1S2(=O)=O [WX293] | ≤ 0.1 | – |
| O=C(NCCOc1cccnc1)c1ccc2c(c1)NC(=O)c1cccn1S2(=O)=O [WX295] | 0.1 to 0.5 | – |
| O=C(NCCOc1cccnc1)c1ccc2c(c1)NC(=O)c1cccn1S2(=O)=O [WX297] | – | ≤ 0.1 |
| N#Cc1ccc(-c2ncc(CNC(=O)c3ccc4c(c3)NC(=O)c3cccn3S4(=O)=O)s2)cc1 [WX298] | ≤ 0.1 | – |
| O=C(NCCCc1ccc(F)cc1)c1ccc2c(c1)NC(=O)c1cccn1S2(=O)=O [WX299] | 0.1 to 0.5 | – |
| O=C(NCCc1cccc(Cl)c1)c1ccc2c(c1)NC(=O)c1cccn1S2(=O)=O [WX300] | 0.1 to 0.5 | – |
| O=C(NCCc1ccc(Cl)cc1)c1ccc2c(c1)NC(=O)c1cccn1S2(=O)=O [WX301] | ≤ 0.1 | – |
| Cc1cc2n(c1)S(=O)(=O)c1ccc(C(=O)NCCc3ccc(F)cc3)cc1NC2=O [WX305] | ≤ 0.1 | – |
| Cc1cc2n(c1)S(=O)(=O)c1ccc(C(=O)NCc3cccnc3)cc1NC2=O [WX306] | ≤ 0.1 | – |
| Cc1cc2n(c1)S(=O)(=O)c1ccc(C(=O)NCc3cnc(-c4ccc(C#N)cc4)s3)cc1NC2=O [WX308] | ≤ 0.1 | – |
| Cc1cc2n(c1)S(=O)(=O)c1ccc(C(=O)NCCC3CCCCO3)cc1NC2=O (stereo not drawn) [WX309] | ≤ 0.1 | – |
| O=C(NCCC1CCCO1)c1ccc2c(c1)NC(=O)c1cc(Br)cn1S2(=O)=O (stereo not drawn) [WX311] | ≤ 0.1 | – |
| O=C(NCCC1CCCCO1)c1ccc2c(c1)NC(=O)c1cc(Br)cn1S2(=O)=O (stereo not drawn) [WX312] | ≤ 0.1 | – |
| O=C(NCCC1CCCCCO1)c1ccc2c(c1)NC(=O)c1cccn1S2(=O)=O (stereo not drawn) [WX318] | ≤ 0.1 | – |
